Consider 32 molecules from US7576085B2, “Imidazopyrazines as cyclin dependent kinase inhibitors” (Schering Corporation, priority 2002, dated 2009).

The target in series [1] is T1, CDK2 (cyclin A or cyclin E) (Homo sapiens, UniProt P24941).
T1 construct: The expressed protein was approximately 34 kDa in size; made in house; host or cells: SF9 insect cells (recombinant baculovirus, pFASTBAC)
Description: CDK2 in vitro kinase assay (cyclin A or cyclin E dependent), SPA with biotinylated Histone H1 peptide. The class given is biochemical. The note with it: for IC50: CDK2 with cyclin A or cyclin E, 33P-ATP SPA, 1 hour at room temperature; for inhibition at 0.05 µg/mL: compound at 0.05 ug/mL, read-out: % INH @ 0.05 ug/mL; for inhibition at 0.5 µg/mL: compound at 0.5 ug/mL, read-out: % INH @ 0.5 ug/mL.

Regarding `Brc1cnc2c(NCCc3ccncc3)nc(-c3ccccc3)cn12`, the melting point fell in the range of 177 to 179 °C.
The same measure, in the same setting: the same measure for `Brc1cnc2c(NCCc3cccnc3)nc(-c3ccccc3)cn12`: 120 to 122 °C; for `Brc1cnc2c(NC3CCCCC3)nc(-c3ccccc3)cn12`: 145 to 146 °C; for `Ic1cnc2c(NCc3cccnc3)nc(-c3ccccc3)cn12`: 204 to 206 °C.
As to `Ic1cnc2c(NCc3ccncc3)nc(-c3ccccc3)cn12`, the melting point is 139 to 141 °C.
Consider `O=C(c1cccc(C(F)(F)F)c1)N1CCC(Nc2nc(-c3ccccc3Cl)cn3c(Br)cnc23)CC1`, for which the melting point lay within 175 to 177 °C.
Turning to `Clc1ccccc1-c1cn2c(I)cnc2c(NCc2ccncc2)n1`, the melting point fell in the range of 162 to 164 °C.
The molecule `Clc1ccccc1-c1cn2c(Cl)cnc2c(NCc2cccnc2)n1` registered a melting point of 127 to 129 °C.
As for `Brc1cnc2c(Nc3ccccc3)nc(-c3ccccc3)cn12`, the melting point was 169 to 170 °C.
As to `Cc1cnc2c(NCc3ccccc3)nccn12`, the melting point fell in the range of 152 to 154 °C.
`Cc1cnc2c(NCCc3ccncc3)nccn12` displayed a melting point of 130 to 132 °C.
`COCCNc1nccn2c(C)cnc12` yielded a melting point of 104 to 105 °C.
The molecule `Cc1cnc2c(Nc3ccccc3)nccn12` yielded a melting point of 182 to 184 °C.
Still for that read-out and setting: next, `Cc1cnc2c(NCc3ccncc3)nccn12`: 183 to 185 °C; `Cc1cnc2c(NC(c3ccccc3)c3ccccc3)nccn12`: 186 to 188 °C; `Cc1cnc2c(NCc3cccnc3)nccn12`: 143 to 145 °C.
Regarding `Clc1ccccc1-c1cn2c(Br)cnc2c(NCc2ccncc2)n1`, in series [1], the half-inhibitory concentration (IC50) was determined as 490 nM.
As for `Clc1ccccc1-c1cn2c(Br)cnc2c(NCc2cccnc2)n1`, in series [1], the IC50 was 240 nM, the inhibition at 0.05 µg/mL stood at 47.4% and the inhibition at 0.5 µg/mL was 88.6%.
For `Clc1ccccc1-c1cn2c(I)cnc2c(NCc2cccnc2)n1`, it took 230 nM to reach half-maximal inhibition in series [1] (IC50).
In series [1], `c1ccc(-c2cn3c(-c4ccccc4)cnc3c(NCc3cccnc3)n2)cc1` had a half-inhibitory concentration (IC50) of 6700 nM.
Turning to `FC(F)(F)c1ccc(CNc2nc(-c3ccccc3)cn3c(Br)cnc23)cn1`, the IC50 in series [1] was determined as 4550 nM.
The same measure, in the same setting: next, `CC(=O)c1cnc2c(NCc3cccnc3)nc(-c3ccccc3)cn12`: 4700 nM.
Take `CC(CO)Nc1nc(-c2ccccc2Cl)cn2c(Br)cnc12` (stereo not shown): in series [1], the IC50 worked out at 200 nM, the inhibition at 0.05 µg/mL was determined as 63% and the inhibition at 0.5 µg/mL is 92.7%.
In the case of `COCCCNc1nc(-c2ccccc2Cl)cn2c(Br)cnc12`, in series [1], the inhibition at 0.05 µg/mL is 30.7% and the inhibition at 0.5 µg/mL is 71.5%.
For the molecule `Clc1ccccc1-c1cn2c(Br)cnc2c(NCCCn2cccc2)n1`, in series [1], the inhibition at 0.05 µg/mL was found to be 42.2% and the inhibition at 0.5 µg/mL is 48.8%.
With `Clc1ccccc1-c1cn2c(Br)cnc2c(NCCCn2ccnc2)n1`, in series [1], the inhibition at 0.05 µg/mL worked out at 37.5% and the inhibition at 0.5 µg/mL turned out to be 29.4%.
For `O=C1CCCN1CCCNc1nc(-c2ccccc2Cl)cn2c(Br)cnc12`, in series [1], the inhibition at 0.05 µg/mL was 30.7% and the inhibition at 0.5 µg/mL was 67.8%.
Consider `Cc1cnc2c(Nc3ccccc3)nccn12` [drawing 711], for which, in series [1], the IC50 was 15000 nM.
Regarding `Cc1cnc2c(NCc3ccncc3)nccn12` [drawing 712], the IC50 in series [1] was 22500 nM.
In series [1], `Brc1cnc2c(NCCc3cccnc3)nc(-c3ccccc3)cn12` [drawing 713] registered a 50% inhibitory concentration (IC50) of 4180 nM.
Turning to `Ic1cnc2c(NCc3ccncc3)nc(-c3ccccc3)cn12` [drawing 714], the half-inhibitory concentration (IC50) in series [1] is 530 nM.
In turn, `Clc1ccccc1-c1cn2c(Cl)cnc2c(NCc2cccnc2)n1` [drawing 718] registered an IC50 in series [1] of 430 nM.
